For this assay, the target named is T1, PI3Kβ (Homo sapiens, UniProt P42338).
T1 construct: made in house
Briefly: TR-FRET enzymatic activity assay against PI3K isoforms. Type of assay: biochemical. The note with it: 2×Km ATP, 2 μM PIP2, 30 minutes at 25° C., recombinant heterodimeric PI3Kβ 25-50 pM, read-out: IC50-PIP-Beta. How it is done:
The compounds of formula (I) were characterized for their enzymatic activity against the PI3K isoforms. The activities were measured using a time-resolved fluorescence resonance energy transfer (TR-FRET) assay. TR-FRET monitored the formation of 3,4,5-inositol triphosphate molecule that competed with fluorescently labeled PIPS for binding to the GRP-1 pleckstrin homology domain protein.
Class I PI3K isoforms were expressed and purified as heterodimeric recombinant proteins. All assay reagents and buffers for the TR-FRET assay were purchased from Millipore. […] The compounds were added to the assay solution and incubated for 30 minutes at 25° C. The reactions were terminated with a final concentration of 10 mM EDTA, 10 nM labeled-PIPS, and 35 nM Europium labeled GRP-1 detector protein before reading TR-FRET on an Envision plate reader (Ex: 340 nm; Em: 615/665 nm; 100 μs delay and 500 μs read window).
The results were normalized based on positive (1 μM wortmanin) and negative (DMSO) controls, and the IC50 values for PI3K α, β, δ, and γ were calculated from the fit of the dose-response curves to a four-parameter equation. These assays generally produced results within 3-fold of the reported mean.

T1 sequence (P42338 whole entry): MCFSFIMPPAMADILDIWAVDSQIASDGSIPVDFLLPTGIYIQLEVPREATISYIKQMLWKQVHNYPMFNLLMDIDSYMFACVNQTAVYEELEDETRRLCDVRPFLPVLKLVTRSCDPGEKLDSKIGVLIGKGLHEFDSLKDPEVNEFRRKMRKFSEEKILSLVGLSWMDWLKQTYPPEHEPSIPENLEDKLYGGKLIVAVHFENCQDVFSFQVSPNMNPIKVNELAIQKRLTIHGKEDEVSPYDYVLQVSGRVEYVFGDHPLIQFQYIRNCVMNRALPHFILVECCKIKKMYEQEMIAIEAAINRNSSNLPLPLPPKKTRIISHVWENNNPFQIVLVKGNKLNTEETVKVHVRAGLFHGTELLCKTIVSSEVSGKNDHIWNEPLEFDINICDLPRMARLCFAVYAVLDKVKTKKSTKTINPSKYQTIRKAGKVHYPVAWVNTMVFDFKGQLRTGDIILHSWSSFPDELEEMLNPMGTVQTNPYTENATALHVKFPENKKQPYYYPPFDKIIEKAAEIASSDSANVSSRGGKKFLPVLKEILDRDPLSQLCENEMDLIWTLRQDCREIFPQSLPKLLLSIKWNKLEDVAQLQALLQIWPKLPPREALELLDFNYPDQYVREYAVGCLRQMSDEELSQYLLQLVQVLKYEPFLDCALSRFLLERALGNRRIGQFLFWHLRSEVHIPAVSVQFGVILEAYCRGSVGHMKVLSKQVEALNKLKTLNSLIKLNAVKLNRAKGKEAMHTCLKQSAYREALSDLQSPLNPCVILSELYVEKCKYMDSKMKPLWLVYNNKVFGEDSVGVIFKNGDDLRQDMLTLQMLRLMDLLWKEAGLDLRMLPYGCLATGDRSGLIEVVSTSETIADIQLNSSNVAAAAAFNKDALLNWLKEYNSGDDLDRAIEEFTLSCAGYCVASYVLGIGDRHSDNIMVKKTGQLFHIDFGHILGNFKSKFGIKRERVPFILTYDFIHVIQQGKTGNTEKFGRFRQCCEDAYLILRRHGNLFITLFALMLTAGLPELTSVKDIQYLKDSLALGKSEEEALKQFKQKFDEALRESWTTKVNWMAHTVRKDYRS
T1 sequence (P27986 whole entry partner): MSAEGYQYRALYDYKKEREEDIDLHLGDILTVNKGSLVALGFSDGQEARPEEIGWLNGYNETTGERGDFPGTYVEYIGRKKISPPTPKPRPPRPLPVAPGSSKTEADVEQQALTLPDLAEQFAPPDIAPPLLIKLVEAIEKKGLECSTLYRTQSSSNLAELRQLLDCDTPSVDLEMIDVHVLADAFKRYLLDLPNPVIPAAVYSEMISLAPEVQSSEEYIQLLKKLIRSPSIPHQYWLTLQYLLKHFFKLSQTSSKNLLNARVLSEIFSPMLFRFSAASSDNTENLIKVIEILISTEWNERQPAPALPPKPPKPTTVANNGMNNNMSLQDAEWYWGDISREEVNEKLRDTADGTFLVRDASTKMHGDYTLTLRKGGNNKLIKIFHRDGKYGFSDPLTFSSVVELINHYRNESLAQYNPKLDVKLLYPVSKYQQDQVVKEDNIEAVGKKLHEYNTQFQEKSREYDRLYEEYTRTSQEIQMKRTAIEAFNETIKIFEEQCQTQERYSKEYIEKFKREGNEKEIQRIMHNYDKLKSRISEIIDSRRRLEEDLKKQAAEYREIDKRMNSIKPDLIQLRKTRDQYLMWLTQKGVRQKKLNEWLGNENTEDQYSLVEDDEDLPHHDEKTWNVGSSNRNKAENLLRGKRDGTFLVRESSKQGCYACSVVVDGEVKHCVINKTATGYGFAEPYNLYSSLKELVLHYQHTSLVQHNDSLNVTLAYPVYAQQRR

In the case of `CCCc1nc2c(-c3nnc[nH]3)cc(N3CCOCC3)cc2n1-c1cccc2c(F)cccc12` (single isomer, unassigned) [Compound 6-1, 4-[3-(5-fluoronaphthalen-1-yl)-2-propyl-7-(4H-1,2,4-triazol-3-yl)benzimidazol-5-yl]morpholine], the IC50 came out at 42 nM. The figure for `CCCc1nc2c(-c3nnc[nH]3)cc(N3CCOCC3)cc2n1-c1cccc2c(F)cccc12` (single isomer, unassigned) [Compound 6-2, 4-[3-(5-fluoronaphthalen-1-yl)-2-propyl-7-(4H-1,2,4-triazol-3-yl)benzimidazol-5-yl]morpholine] is 3 nM; for `COC(=O)c1cc(N2CCOCC2)cc2c1nc(C)n2-c1cccc2ccccc12` [Compound 2-1, methyl 1-(naphthalen-1-yl)-2-methyl-6-morpholino-1H-benzo[d]imidazole-4-carboxylate] it is 140 nM; for `COC(=O)c1cc(N2CCOCC2)cc2c1ncn2-c1cccc2ccccc12` [Compound 2-2, methyl 6-morpholin-4-yl-1-naphthalen-1-ylbenzimidazole-4-carboxylate] it is 230 nM. Take `CCOC(=O)c1nc2c(C(=O)OC)cc(N3CCOCC3)cc2n1-c1cccc2ccccc12` [Compound 2-3, 2-O-ethyl 4-O-methyl 6-morpholin-4-yl-1-naphthalen-1-ylbenzimidazole-2,4-dicarboxylate]: the IC50 amounted to 700 nM. Next, `O=C(O)c1cc(N2CCOCC2)cc2c1ncn2-c1cccc2ccccc12` [Compound 3-1, 6-morpholin-4-yl-1-naphthalen-1-ylbenzimidazole-4-carboxylic acid]: more than 10000 nM; `Cc1nc2c(C(=O)O)cc(N3CCOCC3)cc2n1-c1cccc2ccccc12` [Compound 3-2, 2-methyl-6-morpholin-4-yl-l-naphthalen-1-ylbenzimidazole-4-carboxylic acid]: 1800 nM; `Cc1nc2c(C(N)=O)cc(N3CCOCC3)cc2n1-c1ccc(F)c2ccccc12` [Compound 4-1, 1-(4-fluoronaphthalen-1-yl)-2-methyl-6-morpholino-1H-benzo[d]imidazole-4-carboxamide]: 87 nM. The figure for `Cc1nc2c(C(N)=O)cc(N3CCOCC3)cc2n1-c1cnc2c(Cl)cccc2c1` [Compound 4-2, 1-(8-chloroquinolin-3-yl)-2-methyl-6-morpholino-1H-benzo[d]imidazole-4-carboxamide] is 2300 nM; for `Cc1nc2c(C(N)=O)cc(N3CCOCC3)cc2n1-c1cnc2cccc(Cl)c2c1` [Compound 4-3, 1-(5-chloroquinolin-3-yl)-2-methyl-6-morpholino-lH-benzo[d]imidazole-4-carboxamide] it is 390 nM; for `Cc1nc2c(C(N)=O)cc(N3CCOCC3)cc2n1-c1cccc2c(F)cccc12` [Compound 4-4, 1-(5-fluoronaphthalen-1-yl)-2-methyl-6-morpholin-4-ylbenzimidazole-4-carboxamide] it is 13 nM. The figure for `Cc1nc2c(-c3nnc[nH]3)cc(N3CCOCC3)cc2n1-c1ccc(F)c2ccccc12` [Compound 5-1, 4-(1-(4-fluoronaphthalen-1-yl)-2-methyl-4-(4H-1,2,4-triazol-3-yl)-1H-benzo[d]imidazol-6-yl)morpholine] is 9 nM; for `Cc1nnc(-c2cc(N3CCOCC3)cc3c2nc(C)n3-c2ccc(F)c3ccccc23)[nH]1` [Compound 5-2, 4-[3-(4-fluoronaphthalen-1-yl)-2-methyl-7-(5-methyl-4H-1,2,4-triazol-3-yl)benzimidazol-5-yl]morpholine] it is 43 nM; for `Cc1nc2c(-c3nnc[nH]3)cc(N3CCOCC3)cc2n1-c1cnc2ccc(Cl)cc2c1` [Compound 5-3, 4-(1-(6-chloroquinolin-3-yl)-2-methyl-4-(4H-1,2,4-triazol-3-yl)-1H-benzo[d]imidazol-6-yl)morpholine] it is 4200 nM. Consider `CCc1nc2c(-c3nnc[nH]3)cc(N3CCOCC3)cc2n1-c1cnc2ccccc2c1` [Compound 5-4, 4-(2-ethyl-1-(quinolin-3-yl)-4-(4H-1,2,4-triazol-3-yl)-lH-benzo[d]imidazol-6-yl)morpholine], for which the IC50 worked out at 1200 nM. In the case of `Cc1nc2c(-c3nnc[nH]3)cc(N3CCOCC3)cc2n1-c1cnc2cc(Cl)ccc2c1` [Compound 5-5, 4-(1-(7-chloroquinolin-3-yl)-2-methyl-4-(4H-1,2,4-triazol-3-yl)-1H-benzo[d]imidazol-6-yl)morpholine], the half-inhibitory concentration (IC50) was 1200 nM.

On to `Cc1nc2c(-c3nnc[nH]3)cc(N3CCOCC3)cc2n1-c1cnc2ccccc2c1` [Compound 5-6, 4-(2-methyl-1-(quinolin-3-yl)-4-(4H-1,2,4-triazol-3-yl)-1H-benzo[d]imidazol-6-yl)morpholine], for which the half-maximal inhibitory concentration (IC50) was determined as 720 nM. In the case of `Cc1nc2c(-c3nnc[nH]3)cc(N3CCOCC3)cc2n1-c1cnc2c(Cl)cccc2c1` [Compound 5-7, 4-(1-(8-chloroquinolin-3-yl)-2-methyl-4-(4H-1,2,4-triazol-3-yl)-H-benzo[d]imidazol-6-yl)morpholine], the IC50 amounted to 190 nM.

As to `Cc1nc2c(-c3nnc[nH]3)cc(N3CCOCC3)cc2n1-c1cnc2cccc(Cl)c2c1` [Compound 5-8, 4-(1-(5-chloroquinolin-3-yl)-2-methyl-4-(4H-1,2,4-triazol-3-yl)-1H-benzo[d]imidazol-6-yl)morpholine], the concentration for half-maximal inhibition (IC50) is 28 nM. The figure for `CCc1nc2c(-c3nnc[nH]3)cc(N3CCOCC3)cc2n1-c1ccc2ccccc2n1` [Compound 5-9, 4-(2-ethyl-1-(quinolin-2-yl)-4-(4H-1,2,4-triazol-3-yl)-1H-benzo[d]imidazol-6-yl)morpholine] is 220 nM; for `Cc1nc2c(-c3nnc[nH]3)cc(N3CCOCC3)cc2n1-c1ccc2ccccc2c1` [Compound 5-10, 4-(2-methyl-1-(naphthalen-2-yl)-4-(4H-1,2,4-triazol-3-yl)-1H-benzo[d]imidazol-6-yl)morpholine] it is 38 nM. The figure for `CCCc1nc2c(-c3nnc[nH]3)cc(N3CCOCC3)cc2n1-c1cccc2c(F)cccc12` [Compound 5-11, 4-[3-(5-fluoronaphthalen-1-yl)-2-propyl-7-(4H-1,2,4-triazol-3-yl)benzimidazol-5-yl]morpholine] is 6 nM; for `Fc1cccc2c(-n3cnc4c(-c5nnc[nH]5)cc(N5CCOCC5)cc43)cccc12` [Compound 5-12, 4-[3-(5-fluoronaphthalen-1-yl)-7-(4H-1,2,4-triazol-3-yl)benzimidazol-5-yl]morpholine] it is 2 nM; for `Cc1nc2c(-c3nnc[nH]3)cc(N3CCOCC3)cc2n1-c1cccc2c(F)cccc12` [Compound 5-13, 4-[3-(5-fluoronaphthalen-1-yl)-2-methyl-7-(4H-1,2,4-triazol-3-yl)benzimidazol-5-yl]morpholine] it is 5 nM. The figure for `Cc1nc2c(-c3nnc[nH]3)cc(N3CCOCC3)cc2n1-c1cc2ccccc2cn1` [Compound 5-14, 4-(1-(isoquinolin-3-yl)-2-methyl-4-(4H-1,2,4-triazol-3-yl)-1H-benzo[d]imidazol-6-yl)morpholine] is 580 nM; for `Cc1nnc(-c2cc(N3CCOCC3)cc3c2nc(C)n3-c2cc3ccccc3cn2)[nH]1` [Compound 5-15, 4-(1-(isoquinolin-3-yl)-2-methyl-4-(5-methyl-4H-1,2,4-triazol-3-yl)-1H-benzo[d]imidazol-6-yl)morpholine] it is 3400 nM.

Values taken from US10479770B2, “Phosphatidylinositol 3-kinase inhibitors” (Gilead Sciences, Inc., priority 2016, dated 2019).
